Data as given in paper PMC7010297, “How the initiating ribosome copes with ppGpp to translate mRNAs” (PLoS Biology, 2020).
pIC50: −log10 of the molar value. “And” between values parts separate entries of the source, which are not always exact repeats. Identical values can stand only once. Like-named read-outs stand apart in the source and are kept apart here.

What was measured:
30S-bound IF2 (30S IC) = biological target: T1, 30S-bound IF2 (30S IC) (Escherichia coli, UniProt P0A705); assay: ppGpp (or GDP) to GTP competitive assay for 30S IC formation by MST; assay type: binding
T1 construct: 6xHis (N); made in house
T1 sequence (P0A705 whole entry, looked up): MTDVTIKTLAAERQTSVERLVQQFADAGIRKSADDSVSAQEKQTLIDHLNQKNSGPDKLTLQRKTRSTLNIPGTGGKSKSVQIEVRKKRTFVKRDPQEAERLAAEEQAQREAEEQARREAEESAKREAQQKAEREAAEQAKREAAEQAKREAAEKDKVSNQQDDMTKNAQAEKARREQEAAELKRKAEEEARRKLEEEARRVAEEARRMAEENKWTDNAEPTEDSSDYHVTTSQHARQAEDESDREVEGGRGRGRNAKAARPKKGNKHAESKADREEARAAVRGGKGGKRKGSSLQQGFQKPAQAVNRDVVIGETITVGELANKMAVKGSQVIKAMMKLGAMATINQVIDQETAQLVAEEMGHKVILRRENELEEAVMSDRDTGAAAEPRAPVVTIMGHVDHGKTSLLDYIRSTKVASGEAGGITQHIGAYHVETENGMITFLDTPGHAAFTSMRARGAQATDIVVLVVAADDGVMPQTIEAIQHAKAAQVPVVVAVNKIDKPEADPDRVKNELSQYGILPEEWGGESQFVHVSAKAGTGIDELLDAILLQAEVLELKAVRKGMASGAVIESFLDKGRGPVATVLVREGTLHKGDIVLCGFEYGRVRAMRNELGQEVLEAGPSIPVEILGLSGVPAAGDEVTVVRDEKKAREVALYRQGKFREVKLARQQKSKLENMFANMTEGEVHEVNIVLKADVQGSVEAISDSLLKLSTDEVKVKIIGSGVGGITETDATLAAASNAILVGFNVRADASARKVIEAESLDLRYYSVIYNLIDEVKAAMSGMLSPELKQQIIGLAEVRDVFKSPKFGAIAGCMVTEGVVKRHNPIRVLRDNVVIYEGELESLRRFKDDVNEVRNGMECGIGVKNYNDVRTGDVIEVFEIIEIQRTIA
Description: MST was calculated from the respective fluorescence time dependencies (S3 Fig). […] Symbols as in (B). […] Continuous lines indicate nonlinear regression fittings with quadratic (B and E) or same-site competition (G) functions. Three measurements were performed; mean and standard deviations are plotted (S1 Data).
[…] Symbols are as indicated, 3 measurements were performed, and mean and standard deviation are plotted (S1 Data). Continuous lines show nonlinear regression fittings with a same-site inhibition model. […] (PDF) Click here for additional data file.

[1] = biological target: T2, 70S pre-IC (50S joining to 30S IC) (Escherichia coli, UniProt P0A705); assay: 70S pre-IC formation by light scattering, stopped-flow; assay type: biochemical; design: K1, best-fit value / k2, best-fit value: unit not given here; conditions: for A0, best-fit value / K1, best-fit value / k2, best-fit value: fit Y=A0+A1*exp(-K1*x)+k2*x; for kfast (s-1) Avg: light scattering
T2 construct: 6xHis (N); made in house
T2 sequence (P0A705 whole entry, looked up): as above
Description: Continuous lines indicate nonlinear regression fittings with a quadratic equation. Three measurements were performed; mean and standard deviation are plotted (S1 Data). (B) as (A) to measure the concentration dependence for each tested guanosine nucleotide at constant IF2 (1 μM). […] Continuous lines show best fits using exponential functions. (D) Formation of 70S IC as measured by Bpy-tRNAi accommodation in the P site of the ribosome; 0.1 μM 30S ICs were formed with Bpy-tRNAi and rapidly mixed with 0.3 μM 50S subunits on a stopped-flow apparatus as described in [14]. Colors are as in (C). Continuous lines show best fits using an exponential function for a single reaction step. Each stopped-flow trace results from the mean of 5 to 7 replicates.
(A) Scheme of 70S IC formation. […] Time traces were analyzed by nonlinear regression with exponential terms. […] Formation of 70S IC, as measured by Bpy-tRNAi accommodation in the absence (F) or presence of 200 μM ppGpp (G). Time traces were analyzed by nonlinear regression with one exponential term. […] Continuous lines show best fits using an exponential function for a single reaction step. All time traces are mean values of 5 to 10 replicates. Bar graphs show mean and standard errors (error bars) derived from the nonlinear regression fitting (D,E,H,I) (S1 Data).
To measure 70S pre-IC formation, a SX-20 stopped-flow instrument (Applied Photophysics, Leatherhead, UK) was set up for LS recording with an excitation wavelength of 430 nm. Scattered light was measured at an angle of 90° without a filter. Pseudo first-order conditions were approximated by using ≥3-fold excess of 50S subunits over 30S ICs; 0.2 μM 30S ICs were rapidly mixed in the instrument with 0.6 μM 50S at 25 °C. Bpy-tRNAi accommodation was measured essentially as described elsewhere. Briefly, 0.2 μM 30S ICs were formed using Bpy-tRNAi and rapidly mixed with 0.6 μM 50S at 25 °C. Fluorescence was excited at 470 nm and measured after a 495-nm longpass filter. Individual traces (6–11 traces) were averaged, and the resulting kinetic curve was approximated by single (F = A0 + A1*exp (-kapp1*t)) or double (F = A0 + A1*exp (-kapp1*t) + A2*exp (-kapp2*t)) exponential fit using Graphpad Prism 6.0 software (GraphPad, San Diego, California).

IF2 = biological target: T3, IF2 (Escherichia coli, UniProt P0A705); assay: IF2-Bpy-tRNAi-GNP ternary complex formation by MST; assay type: binding; conditions: S2A Fig
T3 construct: 6xHis (N); made in house
T3 sequence (P0A705 whole entry): as the sequence (P0A705 whole entry, looked up) above
Description: Supplementary file pbio.3000593.s002.pdf: S2 Fig IF2-Bpy-tRNAi complex formation as a function of guanosine nucleotides. (A) IF2 concentration dependencies for Bpy-tRNAi binding in the presence of 0.5 mM of the indicated guanosine nucleotides to build IF2-tRNA-GNP ternary complexes (TCs). […] Three to five measurements were performed; mean and standard deviation are plotted (S1 Data). […] (PDF) Click here for additional data file.

## Nc1nc2c(ncn2[C@@H]2O[C@H](COP(=O)(O)OP(=O)(O)O)[C@@H](O)[C@H]2O)c(=O)[nH]1 [GDP, guanosine diphosphate]
30S-bound IF2 (30S IC); mRNA mInfA, read-out: IC50 Average
  pIC50: 3.90
30S-bound IF2 (30S IC); mRNA mInfA, read-out: IC50 Replicates
  pIC50: 3.91 and 3.89 and 3.90
30S-bound IF2 (30S IC); mRNA mMF1, read-out: IC50 Average
  pIC50: 4.41
30S-bound IF2 (30S IC); mRNA mMF1, read-out: IC50 Replicates
  pIC50: 4.43 and 4.40 and 4.41
30S-bound IF2 (30S IC); mRNA mTufA, read-out: IC50 Average
  pIC50: 3.76
30S-bound IF2 (30S IC); mRNA mTufA, read-out: IC50 Replicates
  IC50: 168 µM and 176 µM (2×)
[1]; 0.2 mM nucleotide, no GTP
  efficiency (amplitude) of 70S pre-IC formation: reduced efficiencies
[1]; 0.2 mM nucleotide, noncompetitive (S6 Fig)
  rapid 70S pre-IC formation in the absence of GTP: some transitions
[1]; mInfA
  A0, best-fit value: 1.03
  K1, best-fit value: 1.58
  k2, best-fit value: 0.0017 and 0.00169
[1]; mMF1
  A0, best-fit value: 1.04
  K1, best-fit value: 2.79
  k2, best-fit value: 0.001
[1]; mRNA mInfA
  LS amplitude (a.u.) Avg: 0.028 a.u.
  kfast (s-1) Avg: 1.58 s⁻¹
[1]; mRNA mMF1
  LS amplitude (a.u.) Avg: 0.027 a.u.
  kfast (s-1) Avg: 2.79 s⁻¹
[1]; mRNA mTufA
  LS amplitude (a.u.) Avg: 0.058 a.u.
  kfast (s-1) Avg: 3.39 s⁻¹
[1]; mTufA
  A0, best-fit value: 1.07
  K1, best-fit value: 3.39
  k2, best-fit value: 0.0016 and 0.00162
IF2; IF2 0.08 µM
  MST Average: 942.60 a.u.
  MST Replicates: 949.60 a.u. and 944.98 a.u. and 933.23 a.u.
IF2; IF2 0.16 µM
  MST Average: 942.82 a.u.
  MST Replicates: 948.93 a.u. and 934.15 a.u. and 945.38 a.u.
IF2; IF2 0.31 µM
  MST Average: 943.82 a.u.
  MST Replicates: 946.47 a.u. and 934.49 a.u. and 950.50 a.u.
IF2; IF2 0.63 µM
  MST Average: 944.11 a.u.
  MST Replicates: 935.16 a.u. and 946.20 a.u. and 950.97 a.u.
IF2; IF2 1.25 µM
  MST Average: 945.61 a.u.
  MST Replicates: 951.42 a.u. and 947.72 a.u. and 937.68 a.u.
IF2; IF2 2.50 µM
  MST Average: 948.90 a.u.
  MST Replicates: 941.84 a.u. and 953.50 a.u. and 951.35 a.u.
IF2; IF2 5.00 µM
  MST Average: 954.49 a.u.
  MST Replicates: 948.07 a.u. and 955.91 a.u. and 959.48 a.u.
IF2; IF2 10.00 µM
  MST Average: 962.55 a.u.
  MST Replicates: 958.33 a.u. and 964.33 a.u. and 964.97 a.u.
IF2; IF2 20.00 µM
  MST Average: 973.27 a.u.
  MST Replicates: 973.71 a.u. and 974.19 a.u. and 971.91 a.u.
IF2; IF2 40.00 µM
  MST Average: 980.27 a.u.
  MST Replicates: 984.66 a.u. and 983.20 a.u. and 972.95 a.u.
